# Measurements from patent US6465654B2, “Process for preparing 1-substituted, 2-substituted 1H-imidazo[4, 5-c]quinoline-4-amines” (3M Innovative Properties Company, priority 1991, dated 2002).
# How the values were obtained:
# interferon [1] = assay: Interferon induction in guinea pigs (serum interferon titer); format: in vivo; details: guinea pig serum 24 hours after initial oral dose, 2 mg/kg
# Source text: Female Hartley guinea pigs weighing 200 to 250 g are anesthetized with methoxyflurane (available under the […] from Pitman-Moore, Inc., Washington Crossing, N.J.), after which the vaginal area is swabbed with a dry cotton swab. The guinea pigs are then infected intravaginally with a cotton swab saturated with Herpes simplex virus Type II strain 333 (1×10^5 plaque forming units/mL). Guinea pigs are assigned to groups of 7 animals; one group for each treatment and one to serve as a control (vehicle treated). The compounds of the invention are formulated in water containing 5% Tween 80 (a polyoxyethylene sorbitan monooleate available from Aldrich Chemical Company, Inc., Milwaukee, Wis.). The, guinea pigs are treated orally once daily for four consecutive days starting 24 hours after infection. Twenty-four hours after the initial dose of test compound has been administered, blood is obtained from 3 guinea pigs from each treatment group by cardiac puncture of methoxyflurane anesthetized animals. Blood is pooled and allowed to clot at room temperature. After low speed centrifugation, serum is collected and stored at -70° C. until analysis. Interferon levels in the guinea pig serum are determined in a standard microtiter assay using transformed guinea pig cells (ATCC CRL 1405). The interferon assay is done in 96 well microtiter plates. Confluent monolayers of transformed guinea pig cells are treated with dilutions of guinea pig serum made with medium 199 (GIBCO, Grand Island, N.Y.). The cell and serum dilutions are incubated at 37° C. overnight. The following day, the medium and serum are removed and about 10 plaque forming units of Mengovirus are added to each well. Controls consist of wells that receive no guinea pig serum (virus positive control) and wells that receive no virus (virus negative control). Cells and virus are incubated for 2 to 3 days at 37° C. before quantifying for viral cytopathic effect. The viral cytopathic effect is quantified by staining with 0.05% crystal violet followed by spectrophotometric absorbance measurements. The titer of interferon in serum is expressed as units/mL and is the reciprocal of the highest dilution that protects cells from virus.
# [2] = system: Herpes simplex virus Type II strain 333; assay: Antiviral activity in guinea pigs infected with Herpes simplex virus Type II (lesion inhibition); format: in vivo; details: oral once daily for four days
# Source text: Female Hartley guinea pigs weighing 200 to 250 g are anesthetized with methoxyflurane (available under the […] from Pitman-Moore, Inc., Washington Crossing, N.J.), after which the vaginal area is swabbed with a dry cotton swab. The guinea pigs are then infected intravaginally with a cotton swab saturated with Herpes simplex virus Type II strain 333 (1×10^5 plaque forming units/mL). Guinea pigs are assigned to groups of 7 animals; one group for each treatment and one to serve as a control (vehicle treated). The compounds of the invention are formulated in water containing 5% Tween 80 (a polyoxyethylene sorbitan monooleate available from Aldrich Chemical Company, Inc., Milwaukee, Wis.). The, guinea pigs are treated orally once daily for four consecutive days starting 24 hours after infection. Antiviral activity is evaluated by comparing lesion development in compound-treated versus vehicle-treated guinea pigs. […] The maximum lesion score of each guinea pig is used to calculate the percentage lesion inhibition. The percentage lesion inhibition is calculated as follows: […]
# interferon [3] = assay: Interferon induction in mice; format: in vivo; details: mouse serum
# How it was run: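 Interferon titres expressed as α/β reference units/mL relative to mouse MU-1-IF standard, "<" denoting undetectable. Pooled serum came from mouse groups bled at 1, 2 or 4 h, frozen at −70° C, analysed like human-cell samples.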
# interferon-α [4] = assay: Interferon-α induction in human cells, PBM; format: cell-based; details: 24 hours
# MC-26 colon tumor cells = assay: Inhibition of MC-26 tumors in mice, 14 day lung colony count; format: in vivo; details: lung colonies day 14, 4×10^4 MC-26 cells i.v., oral 30 mg/kg on days 3-7 and 10-14; control 385 ± 31
# Experimental: The mice are sacrificed 14 days later. […] Five mice are in each treatment group and comparisons are made to controls. […] The mice in the control groups were dosed orally with saline (10 mL/kg) on days 3, 4, 5, 6, and 7, and with water (10 mL/kg) on days 10, 11, 12, 13, and 14.
# interferon-α [5] = assay: Interferon-α induction in human cells, diluted whole blood; format: cell-based; details: 24 hours
Compound,% Lesion Inhibition ([2]; dose 2 mg/kg) [%],"Interferon induction in mice (interferon [3]; oral 1 mg/kg, 1 hr) [Reference Units/mL]","Interferon induction in mice (interferon [3]; oral 1 mg/kg, 2 hr) [Reference Units/mL]","Interferon induction in mice (interferon [3]; oral 1 mg/kg, 4 hr)","Interferon induction in mice (interferon [3]; oral 3 mg/kg, 1 hr)","Interferon induction in mice (interferon [3]; oral 3 mg/kg, 2 hr)","Interferon induction in mice (interferon [3]; oral 3 mg/kg, 4 hr) [Reference Units/mL]","Interferon induction in mice (interferon [3]; oral 10 mg/kg, 1 hr) [Reference Units/mL]","Interferon induction in mice (interferon [3]; oral 10 mg/kg, 2 hr)","Interferon induction in mice (interferon [3]; oral 10 mg/kg, 4 hr)","Interferon induction in mice (interferon [3]; oral 30 mg/kg, 1 hr) [Reference Units/mL]",Interferon-α induction (interferon-α [4]; dose concentration 0.01 μg/mL),Interferon-α induction (interferon-α [4]; dose concentration 0.05 μg/mL),Interferon-α induction (interferon-α [4]; dose concentration 0.10 μg/mL),Interferon-α induction (interferon-α [4]; dose concentration 0.50 μg/mL),Interferon-α induction (interferon-α [4]; dose concentration 1.0 μg/mL),Interferon-α induction (interferon-α [4]; dose concentration 5.0 μg/mL),"Interferon induction in mice (interferon [3]; oral 0.3 mg/kg, 1 hr) [Reference Units/mL]","Interferon induction in mice (interferon [3]; oral 0.3 mg/kg, 2 hr)","Interferon induction in mice (interferon [3]; oral 0.3 mg/kg, 4 hr) [Reference Units/mL]",also measured
"CC(C)Cn1c(CO)nc2c(N)nc3ccccc3c21 [Example 9, 4-Amino-1-(2-methylpropyl)-1H-imidazo-[4,5-c]quinoline-2-methanol]",37,<47,<47,<47 Reference Units/mL,≦47 Reference Units/mL,≦47 Reference Units/mL,<47,330,740 Reference Units/mL,≦47 Reference Units/mL,2900,<1.8 α Reference Units/mL,16 α Reference Units/mL,140 α Reference Units/mL,750 α Reference Units/mL,750 α Reference Units/mL,750 α Reference Units/mL,,,,"Reference Units/mL (interferon in serum) (interferon [1]): 266 Units/mL; Interferon induction in mice (interferon [3]; oral 30 mg/kg, 2 hr): 5000 Reference Units/mL; Interferon induction in mice (interferon [3]; oral 30 mg/kg, 4 hr): 4 Reference Units/mL"
"CC(C)Cn1c(CN2CCCC2)nc2c(N)nc3ccccc3c21 [Example 13, 1-(2-Methylpropyl)-2-pyrrolidinomethyl-1H-imidazo[4,5-c]quinolin-4-amine]",67,130,530,≦100 Reference Units/mL,230 Reference Units/mL,400 Reference Units/mL,130,700,1200 Reference Units/mL,400 Reference Units/mL,,,,<1.9 α Reference Units/mL,10 α Reference Units/mL,10 α Reference Units/mL,4 α Reference Units/mL,<59,≦130 Reference Units/mL,<59,
"COCCn1c(COC)nc2c(N)nc3ccccc3c21 [Example 37, 1-(2-Methoxyethyl)-2-methoxymethyl-1H-imidazo[4,5-c]quinolin-4-amine]",,<120,<120,<120 Reference Units/mL,<120 Reference Units/mL,<120 Reference Units/mL,<120,270,≦270 Reference Units/mL,≦270 Reference Units/mL,,,,<4 α Reference Units/mL,2500 α Reference Units/mL,2500 α Reference Units/mL,210 α Reference Units/mL,<120,<120 Reference Units/mL,<120,Number of Colonies (MC-26 colon tumor cells): 123 ± 31
"CC(C)Cn1c(CCl)nc2c(N)nc3ccccc3c21.Cl [Example 10, 2-Chloromethyl-1-(2-methylpropyl)-1H-imidazo[4,5-c]quinolin-4-amine Hydrochloride]",,<120,<120,<120 Reference Units/mL,<120 Reference Units/mL,<120 Reference Units/mL,<120,<120,<120 Reference Units/mL,600 Reference Units/mL,,<1.3 α Reference Units/mL,28 α Reference Units/mL,140 α Reference Units/mL,750 α Reference Units/mL,750 α Reference Units/mL,190 α Reference Units/mL,<120,<120 Reference Units/mL,<120,Interferon-α induction (interferon-α [5]; dose concentration 0.10 μg/mL): <1.5 α Reference Units/mL; Interferon-α induction (interferon-α [5]; dose concentration 0.50 μg/mL): 96 α Reference Units/mL; Interferon-α induction (interferon-α [5]; dose concentration 1.0 μg/mL): 120 α Reference Units/mL; Interferon-α induction (interferon-α [5]; dose concentration 5.0 μg/mL): 120 α Reference Units/mL; % Lesion Inhibition ([2]; dose 0.5 mg/kg): 29%
"CC(C)Cn1c(C(C)O)nc2c(N)nc3ccccc3c21 (stereo not drawn) [Example 20, 4-Amino-α-methyl-1-(2-methylpropyl)-1H-imidazo[4,5c]-quinoline-2-methanol]",100,140,560,<47 Reference Units/mL,970 Reference Units/mL,1200 Reference Units/mL,140,2200,5000 Reference Units/mL,100 Reference Units/mL,2200,<1.8 α Reference Units/mL,190 α Reference Units/mL,190 α Reference Units/mL,1000 α Reference Units/mL,1000 α Reference Units/mL,1000 α Reference Units/mL,,,,"Interferon-α induction (interferon-α [5]; dose concentration 0.10 μg/mL): 85 α Reference Units/mL; Interferon-α induction (interferon-α [5]; dose concentration 0.50 μg/mL): 440 α Reference Units/mL; Interferon-α induction (interferon-α [5]; dose concentration 1.0 μg/mL): 250 α Reference Units/mL; Interferon-α induction (interferon-α [5]; dose concentration 5.0 μg/mL): 190 α Reference Units/mL; Interferon induction in mice (interferon [3]; oral 30 mg/kg, 2 hr): 8700 Reference Units/mL; Interferon induction in mice (interferon [3]; oral 30 mg/kg, 4 hr): 320 Reference Units/mL"
